Data set [1] concerns the target vasopressin V2 receptor subtype (V2R) (Homo sapiens, UniProt P30518). Put plainly: 3H-AVP competition binding on V2R membranes. Conditions: affinity for the V2R, equilibrium binding, 3H-AVP (FIG. 2).
Procedure: Reaction mixtures contained 50 mM Tris-HCl, pH 7.4, 10 mM MgCl2 and 1 g/L BSA in a final volume of 100 μL. Plates were incubated for 3 h at room temperature. Binding reactions were stopped by filtration through a GF/C filter pre-soaked in 0.5% polyethyleneimine on a cell harvester ([sequence], Courtaboeuf, France) and plates were dried. […] A one-site inhibition mass action curve was fitted to inhibition binding data using Kaleidagraph (SYNERGY SOFTWARE, Reading, Pa., USA).
In the next data set the target is V1aR (Homo sapiens, UniProt P37288). Put plainly: 3H-AVP competition binding on V1aR membranes. As to conditions: toxin at 1 μM. The method, then:
(§1) Membranes from cells expressing vasopressin receptors were purchased from […] (Courtaboeuf, France). Binding experiments were performed with ^3H-AVP ([…], Courtaboeuf, France) in 96-well plates. Reaction mixtures contained 50 mM Tris-HCl, pH 7.4, 10 mM MgCl2 and 1 g/L BSA in a final volume of 100 μL. Plates were incubated for 3 h at room temperature. Binding reactions were stopped by filtration through a GF/C filter pre-soaked in 0.5% polyethyleneimine on a cell harvester ([…], Courtaboeuf, France) and plates were dried. Ultimagold O (25 μl; […]) was added to each well and samples were counted using a TopCount counter ([…], Courtaboeuf, France) (Counting yield of 55%). […] A one-site inhibition mass action curve was fitted to inhibition binding data using Kaleidagraph (SYNERGY SOFTWARE, Reading, Pa., USA). IC50 values were converted to Ki for competition experiments using the Cheng-Prusoff equation (Cheng et al., Biochem. Pharmacol., 1973, 22, 3099-3108).

The next data set has as its target T1, V1bR (Homo sapiens, UniProt P47901).
T1 sequence (P47901 1-424): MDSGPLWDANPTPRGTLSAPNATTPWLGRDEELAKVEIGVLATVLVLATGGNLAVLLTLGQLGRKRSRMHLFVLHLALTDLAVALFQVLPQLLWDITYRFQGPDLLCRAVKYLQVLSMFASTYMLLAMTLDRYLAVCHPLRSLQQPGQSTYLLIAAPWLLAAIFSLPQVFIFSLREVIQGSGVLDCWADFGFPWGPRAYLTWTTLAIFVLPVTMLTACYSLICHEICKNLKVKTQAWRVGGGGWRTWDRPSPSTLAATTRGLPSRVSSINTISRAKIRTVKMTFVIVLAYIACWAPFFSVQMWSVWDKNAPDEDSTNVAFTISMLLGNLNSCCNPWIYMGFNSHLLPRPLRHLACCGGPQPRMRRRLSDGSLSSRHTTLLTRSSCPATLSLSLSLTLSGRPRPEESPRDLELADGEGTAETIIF
The experiment in a line: 3H-AVP competition binding on V1bR membranes. As to conditions: toxin at 1 μM. As to the method:
as §1

A further data set has as its target T2, hV2-Rluc receptor (Homo sapiens, UniProt P30518).
T2 construct: expressed in transfected cells; host or cells: tsA cells (HEK293 derivative), transiently transfected
The experiment in a line: β-arrestin-1-YFP mobilization (BRET) to V2-Rluc in tsA cells. Format: cell-based. In general terms: BRET reads energy transfer from a luciferase to a nearby fluorophore.

Data set [2] has as its system CD1^pcy/pcy mice. Put plainly: Diuretic and urine osmolarity effect, single and increasing doses. Format: in vivo, mouse. As to the method: The toxin was dissolved in 0.9% NaCl at a concentration of 1 mg/ml. Adult CD1^pcy/pcy (Takahashi et al., J. Urol., 1986, 135, 1280-1283, and J. Am. Soc. Nephrol., 1991, 1, 980-989 and Olbrich et al., Nature Genetics, 2003, 34, 455-459) and adult C57BL/6 mice were injected intraperitoneally and subcutaneously with the toxin at doses of 1, 0.1 and 0.01 μmol toxin/kg of body weight. One, three and five days after the first injection the mice were kept for 24 hours in metabolic cages. The collected urine was centrifuged for 30 minutes at 14,000 rpm. Urine osmolality (mOs/kg) was determined with a Knauer osmometer, urine volume (μl) was measured with a pipette.

Data set [3] deals with CD1^pcy/pcy mice. Put plainly: Long-term administration experiment (99 days). Format: in vivo, mouse. Conditions: 0.1 μmol/kg/day i.p. As to the method: The toxin was dissolved in 0.9% NaCl at a concentration of 1 mg/ml and administered intraperitoneally to adult CD1^pcy/pcy mice at a dose of 0.1 μmol/kg/day. At 0, 30 70 and 99 days, urine was collected for 24 hours in metabolic cages and urine volume and urine osmolarity were determined.

The subject of data set [4] is CD1^pcy/pcy mice. The experiment in a line: Cyst formation in pcy mice (kidney weight, cyst number). Format: in vivo, mouse. Conditions: 0.1 μmol/kg/day i.p., 99 days. As to the method:
The toxin was dissolved in 0.9% NaCl at a concentration of 1 mg/ml. 10 week-old CD1^pcy/pcy mice were injected intraperitoneally with the toxin at a dose of 0.1 μmol toxin/kg of body weightday for 99 days. Then the mice were perfusion-fixed with 4% paraformaldehyde/1× phosphate-buffered saline, the kidneys and hearts were taken out and weighed. Then, the ratio of kidney weight or heart weightbody weight and kidney weightheart weight was calculated to evaluate an effect of the toxin on cyst formation. The kidneys were embedded in paraffin. Transverse kidney sections were stained with hematoxylin and eosin. Cyst number was determined using the program ImageJ and related to the size of the section thus arriving at the relative cyst number.

For a further data set, the target named is V2R (Homo sapiens, UniProt P30518). The experiment in a line: AVP-induced MAP kinase phosphorylation (HTRF) in tsA cells expressing V2R. Format: cell-based. Set-up: expressed in transfected cells. (In TR-FRET formats the signal depends on donor and acceptor labels being close together.)
V2R, sequence (P30518 whole entry): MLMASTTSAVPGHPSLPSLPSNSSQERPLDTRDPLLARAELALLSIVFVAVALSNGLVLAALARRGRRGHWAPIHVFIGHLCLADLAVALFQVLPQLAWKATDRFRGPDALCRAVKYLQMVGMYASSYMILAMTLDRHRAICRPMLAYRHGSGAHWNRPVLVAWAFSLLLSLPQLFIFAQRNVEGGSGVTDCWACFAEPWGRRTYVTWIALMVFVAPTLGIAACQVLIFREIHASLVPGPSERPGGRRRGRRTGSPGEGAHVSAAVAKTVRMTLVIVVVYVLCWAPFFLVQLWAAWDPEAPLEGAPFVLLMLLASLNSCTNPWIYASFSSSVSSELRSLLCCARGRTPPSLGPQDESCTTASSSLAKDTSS
Setting [5] is: i.p. or s.c. injection at 1 μmol/kg, 24 h urine, vs basal state.

T2 sequence (P30518 whole entry): as above
vasopressin V2 receptor subtype (V2R), sequence (P30518 whole entry): as above
V1aR, sequence (P37288 whole entry): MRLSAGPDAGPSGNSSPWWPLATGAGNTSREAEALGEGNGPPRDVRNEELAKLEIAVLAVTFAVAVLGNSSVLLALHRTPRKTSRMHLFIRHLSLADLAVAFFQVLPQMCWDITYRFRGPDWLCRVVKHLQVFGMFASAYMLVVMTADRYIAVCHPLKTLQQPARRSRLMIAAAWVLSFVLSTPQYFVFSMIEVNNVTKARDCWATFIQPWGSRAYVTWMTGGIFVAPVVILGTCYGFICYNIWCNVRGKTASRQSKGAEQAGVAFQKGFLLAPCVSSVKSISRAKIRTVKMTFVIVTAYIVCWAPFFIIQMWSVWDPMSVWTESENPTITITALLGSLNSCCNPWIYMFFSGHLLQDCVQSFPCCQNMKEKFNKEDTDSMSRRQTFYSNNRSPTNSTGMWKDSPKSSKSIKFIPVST
Procedure for hV2-Rluc receptor: 2.5×10^6 tsA cells, a transformed human kidney (HEK293) cell line stably expressing an SV40 temperature sensitive T antigen (ECACC), transiently transfected with 150 ng of pRK5 expression plasmid for hV2Rluc ([sequence] #556104, BD BIOSCIENCE; Terrillon et al., Mol. Endocrinol., 2003, 17, 677-691) and with 1 μg of an expression plasmid for β-arrestin-1-YFP ((β-arrestin cloned into pEYFP-N1 (CLONTECH); Scott et al., J. Biol. Chem., 2002, 277, 3552-3559) were seeded in 6-well plates. 48 h after transfection, cells were washed with KREBS buffer containing 146 mM NaCl, 4.2 mM KCl, 0.5 mM MgCl2, 1 mM CaCl2, 10 mM HEPES pH 7.4, 1 mg/ml glucose and resuspended in 1 ml of this buffer. Bioluminescence Resonance Energy Transfer (BRET™) measurements between the V2-Rluc and β-arrestin-1-YFP were performed in 96-well plates with a final volume of 50 μl containing 30 μl of cell suspension (75,000 cells), 10 μl of KREBS buffer (control condition) or the mix of ligands containing either increasing concentrations of vasopressin (stimulated control condition) or in the presence of increasing concentrations of toxin (stimulated condition with inhibitor).

As for `CC[C@H](C)[C@@H]1NC(=O)[C@H]([C@@H](C)O)NC(=O)[C@H](CO)NC(=O)[C@H](Cc2ccccc2)NC(=O)[C@H](CCCNC(=N)N)NC(=O)[C@H](CC(N)=O)NC(=O)[C@H](C)NC(=O)[C@H](CC(N)=O)NC(=O)CNC(=O)[C@H](CCCCN)NC(=O)[C@@H]2CSSC[C@@H]3NC(=O)[C@@H]4CCCN4C(=O)CNC(=O)[C@@H]4CCCN4C(=O)[C@H](CCCCN)NC(=O)[C@H](C(C)C)NC(=O)[C@@H]4CCCN4C(=O)[C@H](CC(C)C)NC(=O)[C@H](CC(N)=O)NC(=O)[C@@H](NC(=O)[C@H](Cc4ccccc4)NC(=O)[C@H](CO)NC(=O)[C@@H]4CCCN4C(=O)[C@@H](N)CCCNC(=N)N)CSSC[C@@H](C(=O)N[C@H](C(=O)NCC(=O)O)C(C)C)NC(=O)[C@H]([C@@H](C)O)NC(=O)[C@H](CCCNC(=N)N)NC(=O)[C@H](CCCNC(=N)N)NC(=O)[C@H](CSSC[C@H](NC(=O)[C@H](CCCCN)NC(=O)[C@H](CC(N)=O)NC(=O)[C@H]([C@@H](C)O)NC(=O)[C@H](CCCCN)NC(=O)[C@H](CCC(N)=O)NC(=O)[C@H](CO)NC(=O)[C@H](Cc4ccc(O)cc4)NC(=O)[C@H](Cc4ccc(O)cc4)NC(=O)[C@H](Cc4ccccc4)NC(=O)[C@H](C)NC(=O)[C@H](CO)NC(=O)[C@H](Cc4ccccc4)NC(=O)[C@H](Cc4ccccc4)NC(=O)CNC(=O)[C@H](CC(N)=O)NC3=O)C(=O)N[C@@H](Cc3c[nH]cn3)C(=O)N[C@@H](CO)C(=O)N[C@@H](Cc3ccccc3)C(=O)N[C@@H]([C@@H](C)O)C(=O)N[C@@H](Cc3ccc(O)cc3)C(=O)NCC(=O)NCC(=O)N2)NC(=O)[C@H](CCCCN)NC(=O)[C@H](CCC(=O)O)NC1=O` [U-Da2a], the inhibition constant Ki in data set [1] fell in the range of 2 to 5 nM. Also, at V1aR, the “inhibition of 3H-AVP binding to V1aR” value is “did not inhibit”. Further, the “inhibition of 3H-AVP binding to V1bR” value on V1bR is reported as “did not inhibit”. Besides, the Kb on hV2-Rluc receptor was 100 nM. In the data set on CD1^pcy/pcy mice [2] (i.p.), the “dose sufficient to observe the maximal effect” value was 0.1 µmol/kg. Besides, in the data set with CD1^pcy/pcy mice [2] (setting [5]), the urine osmolarity result is reported as “strong decrease in osmolarity” and the urine volume entry was “strong increase in urine volume”. Also, in the data set on CD1^pcy/pcy mice [2] (i.p., 1, 0.1 and 0.01 μmol/kg), the “diuretic effect at increasing doses” value is “dose-dependent diuretic effect” and the “urine osmolarity at increasing doses” value was “decrease in urine osmolarity”. In addition, the “toxic effect after long-term daily injections” value with CD1^pcy/pcy mice [3] is “No toxic effect was detectable”. Moreover, the kidney weight entry in the data set on CD1^pcy/pcy mice [4] was “reduces kidney weight”. For the same molecule, the number of cysts entry in the data set with CD1^pcy/pcy mice [4] (histology) is on record as “significantly reduces the number of cysts”. On V2R, the Kb was 126 nM.

The Ki is the equilibrium dissociation constant of an inhibitor or competing ligand from its target. Lower therefore signals higher affinity.

These data come from patent publication US9631001B2, “Peptide antagonists of the vasopressin-2 receptor” (COMMISSARIAT A L'ENERGIE ATOMIQUE ET AUX ENERGIES …, priority 2012, dated 2017).
